According to patent publication US12599136B2, “Substituted isophthalic acid diamides and their use as herbicides” (Bayer Aktiengesellschaft, priority 2020, dated 2026):

Tests used:
Format in all cases: in vivo
Amaranthus retroflexus [1] = assay: Pre-emergence herbicidal action against AMARE; settings: visual score after 3 weeks vs untreated controls
Description: (§1) Seeds of monocotyledonous and dicotyledonous weed plants and crop plants are laid out in sandy loam soil in wood-fiber pots and covered with soil. The compounds of the invention, formulated in the form of wettable powders (WP) or as emulsion concentrates (EC), are then applied to the surface of the covering soil in the form of an aqueous suspension or emulsion at a water application rate equivalent to 600 to 800 l/ha, with addition of 0.2% wetting agent. After the treatment, the pots are placed in a greenhouse and kept under good growth conditions for the trial plants. The damage to the test plants is scored visually after a test period of 3 weeks by comparison with untreated controls (herbicidal activity in percent (%): 100% activity=the plants have died, 0% activity=like control plants). […] The tables below illustrate, in an illustrative manner, the post-emergence herbicidal action of the compounds of the invention, the herbicidal activity being stated in percent.

Matricaria inodora [2] = assay: Pre-emergence herbicidal action against MATIN; settings: visual score after 3 weeks vs untreated controls
Description: as §1

Amaranthus retroflexus [3] = assay: Post-emergence herbicidal action against AMARE; settings: visual assessment about 3 weeks after treatment
Experimental: (§2) Seeds of monocotyledonous and dicotyledonous weed and crop plants are laid out in sandy loam soil in wood-fiber pots, covered with soil and cultivated in a greenhouse under good growth conditions. 2 to 3 weeks after sowing, the test plants are treated at the one-leaf stage. The compounds of the invention, formulated in the form of wettable powders (WP) or as emulsion concentrates (EC), are then sprayed onto the green parts of the plants in the form of an aqueous suspension or emulsion at a water application rate equivalent to 600 to 800 l/ha, with addition of 0.2% wetting agent. After the test plants have been left to stand in the greenhouse under optimal growth conditions for about 3 weeks, the action of the preparations is assessed visually in comparison to untreated controls (herbicidal action in percent (%): 100% activity=the plants have died, 0% activity=like control plants). […] The tables below illustrate, in an illustrative manner, the post-emergence herbicidal action of the compounds of the invention, the herbicidal activity being stated in percent.

Abutilon theophrasti [4] = assay: Pre-emergence herbicidal action against ABUTH; settings: visual score after 3 weeks vs untreated controls
Description: as §1

Viola tricolor [5] = assay: Pre-emergence herbicidal action against VIOTR
Description: as §1

Matricaria inodora [6] = assay: Post-emergence herbicidal action against MATIN; settings: visual assessment about 3 weeks after treatment
Experimental: as §2

Abutilon theophrasti [7] = assay: Post-emergence herbicidal action against ABUTH
Experimental: as §2

Alopecurus myosuroides [8] = assay: Pre-emergence herbicidal action against ALOMY; settings: visual score after 3 weeks vs untreated controls
Description: as §1

Viola tricolor [9] = assay: Post-emergence herbicidal action against VIOTR
Experimental: as §2

Echinochloa crus-galli [10] = assay: Pre-emergence herbicidal action against ECHCG; settings: 80 g/ha; visual score after 3 weeks vs untreated controls
Description: as §1

Setaria viridis [11] = assay: Pre-emergence herbicidal action against SETVI
Description: as §1

Echinochloa crus-galli [12] = assay: Post-emergence herbicidal action against ECHCG; settings: 20 g/ha, visual assessment about 3 weeks after treatment
Experimental: as §2

Pharbitis purpurea = assay: Post-emergence herbicidal action against PHBPU; settings: 20 g/ha, visual assessment about 3 weeks after treatment
Experimental: as §2

Setaria viridis [13] = assay: Post-emergence herbicidal action against SETVI; settings: visual assessment about 3 weeks after treatment
Experimental: as §2

Veronica persica [14] = assay: Post-emergence herbicidal action against VERPE; settings: 20 g/ha, visual assessment about 3 weeks after treatment
Experimental: as §2

Veronica persica [15] = assay: Pre-emergence herbicidal action against VERPE; settings: 80 g/ha
Description: as §1

Alopecurus myosuroides [16] = assay: Post-emergence herbicidal action against ALOMY; settings: 20 g/ha
Experimental: as §2

Avena fatua = assay: Pre-emergence herbicidal action against AVEFA; settings: 80 g/ha; visual score after 3 weeks vs untreated controls
Description: as §1

Structure (SMILES)	Pre-emergence action against AMARE (Amaranthus retroflexus [1]; 80 g/ha)	Pre-emergence action against MATIN (Matricaria inodora [2]; 80 g/ha)	Post-emergence action against AMARE in % (Amaranthus retroflexus [3]; 20 g/ha)	Pre-emergence action against ABUTH (Abutilon theophrasti [4]; 20 g/ha)	Pre-emergence action against ABUTH (Abutilon theophrasti [4]; 80 g/ha)	Pre-emergence action against VIOTR (Viola tricolor [5]; 80 g/ha)	Post-emergence action against AMARE in % (Amaranthus retroflexus [3]; 5 g/ha)	Post-emergence action against MATIN in % (Matricaria inodora [6]; 20 g/ha)	Pre-emergence action against AMARE (Amaranthus retroflexus [1]; 20 g/ha)	Pre-emergence action against MATIN (Matricaria inodora [2]; 20 g/ha)	Post-emergence action against ABUTH (Abutilon theophrasti [7]; 5 g/ha)	Post-emergence action against ABUTH (Abutilon theophrasti [7]; 20 g/ha)	Pre-emergence action against ALOMY (Alopecurus myosuroides [8]; 80 g/ha)	Post-emergence action against VIOTR in % (Viola tricolor [9]; 20 g/ha)	Pre-emergence action against ECHCG (Echinochloa crus-galli [10])	Pre-emergence action against SETVI (Setaria viridis [11]; 80 g/ha)	Post-emergence action against ECHCG in % (Echinochloa crus-galli [12])	Post-emergence action against PHBPU in % (Pharbitis purpurea)	Post-emergence action against SETVI in % (Setaria viridis [13]; 20 g/ha)	Post-emergence action against VERPE in % (Veronica persica [14])	further results
CCOC(=O)[C@@H]1CCCN1C(=O)c1c(C(F)F)ccc(C(=O)Nc2nnnn2C)c1Cl [Example 1-402]	100%	90%	90%																		
CCn1nnnc1NC(=O)c1ccc(C(F)(F)F)c(C(=O)N(C2CC2)C2CC2)c1Cl [Example 2-144]	100%	100%	90%	90%	100%	100%	90%	80%													
Cn1nnnc1NC(=O)c1ccc(C(F)F)c(C(=O)N(C2CC2)C2CC2)c1Cl [Example 1-175]	100%	90%	100%	90%	100%	90%	100%	90%	80%	90%	80%	90%									
CCn1nnnc1NC(=O)c1ccc(C(F)F)c(C(=O)N(C2CC2)C2CC2)c1Cl [Example 2-175]	100%	100%	100%	100%	100%	90%	100%		100%	90%	80%	90%	90%	80%							Pre-emergence action against ALOMY (Alopecurus myosuroides [8]; 20 g/ha): 80%
Cc1c(C(=O)Nc2nnnn2C)ccc(C(F)F)c1C(=O)N(C)C [Example 1-50]	100%	90%	100%		100%		90%		90%	80%	80%	90%	80%	80%	80%	80%	80%	80%	80%	80%	
CCN(CC)C(=O)c1c(C(F)F)ccc(C(=O)Nc2nnnn2CC)c1C [Example 2-59]	100%	100%	100%	100%	100%	100%	100%	90%	80%	90%	90%	90%	90%	90%	90%		90%		90%	90%	Pre-emergence action against VERPE (Veronica persica [15]): 90%; Pre-emergence action against VIOTR (Viola tricolor [5]; 20 g/ha): 100%; Post-emergence action against ALOMY (Alopecurus myosuroides [16]): 90%; Post-emergence action against MATIN in % (Matricaria inodora [6]; 5 g/ha): 80%; Post-emergence action against SETVI in % (Setaria viridis [13]; 5 g/ha): 90%; Post-emergence action against VIOTR in % (Viola tricolor [9]; 5 g/ha): 80%
CCn1nnnc1NC(=O)c1ccc(Br)c(C(=O)N(C)C)c1Cl [Example 2-191]	100%	100%	100%	90%	100%	80%	100%		100%	90%	90%	90%	100%	80%	100%	100%		80%	100%		Pre-emergence action against ALOMY (Alopecurus myosuroides [8]; 20 g/ha): 90%; Pre-emergence action against AVEFA (Avena fatua): 90%; Pre-emergence action against SETVI (Setaria viridis [11]; 20 g/ha): 100%; Post-emergence action against ALOMY (Alopecurus myosuroides [16]): 100%; Post-emergence action against SETVI in % (Setaria viridis [13]; 5 g/ha): 100%
CCN(C)C(=O)c1c(C(F)F)ccc(C(=O)Nc2nnnn2C)c1C [Example 1-51]	100%	90%	100%		100%	90%	100%	80%	80%		80%	80%	80%	90%	90%	80%	80%	90%	80%	80%	Pre-emergence action against VERPE (Veronica persica [15]): 80%; Post-emergence action against ALOMY (Alopecurus myosuroides [16]): 80%; Post-emergence action against SETVI in % (Setaria viridis [13]; 5 g/ha): 80%; Post-emergence action against VIOTR in % (Viola tricolor [9]; 5 g/ha): 80%
